Measured values from patent US10765114B2, “4-amino-6-(pyridyl and 2-substitutedphenyl)-picolinates and 6-amino-2-(pyridyl and 2-substitutedphenyl)-pyrimidine-4-carboxylates and their use as herbicides” (Dow AgroSciences LLC, priority 2013, dated 2020).

Test system: Key Broadleaf Weed and Crop Species
Assay: Post-Emergent Test II (Table 5)
Assay type: in vivo
Details: Abutilon theophrasti, post-emergence, 336 h, ABUTH: velvetleaf (Abutilon theophrasti), application rate 70 (kg ai/ha; footnote: g ai/ha), read-out: Visual Growth Reduction (%) 14 Days After Application ABUTH
Summary of the method: (§1)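 Plants grown in a greenhouse (~15 h photoperiod, 23-29° C day) to first or second true leaf stage were sprayed post-emergence at 187 L/ha with compound in acetone/DMSO-based aqueous spray containing crop oil concentrate and surfactant, applied at a high rate plus ½× to 1/16× serial rates. Injury was scored visually 14 days later, 0-100% versus untreated plants.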
Work on `COC(=O)c1nc(-c2ccc(C(F)(F)F)nc2F)c(F)c(N)c1Cl` [Compound 24] yielded a pest or weed control at 70 g/ha of 75 to 84%.

Same assay, conditions: Abutilon theophrasti, post-emergence, 336 h, ABUTH: velvetleaf (Abutilon theophrasti), application rate 140 (kg ai/ha; footnote: g ai/ha), read-out: Visual Growth Reduction (%) 14 Days After Application ABUTH
`COC(=O)c1nc(-c2ccc(C(F)(F)F)nc2F)c(F)c(N)c1Cl` [Compound 24] showed a pest or weed control at 140 g/ha of 75 to 84%.

Same assay, conditions: Amaranthus retroflexus, post-emergence, 336 h, AMARE: redroot pigweed (Amaranthus retroflexus), application rate 70 (kg ai/ha; footnote: g ai/ha), read-out: Visual Growth Reduction (%) 14 Days After Application AMARE
With `COC(=O)c1nc(-c2ccc(C(F)(F)F)nc2F)c(F)c(N)c1Cl` [Compound 24] the pest or weed control at 70 g/ha was 75 to 84%.

Same assay, conditions: Amaranthus retroflexus, post-emergence, 336 h, AMARE: redroot pigweed (Amaranthus retroflexus), application rate 140 (kg ai/ha; footnote: g ai/ha), read-out: Visual Growth Reduction (%) 14 Days After Application AMARE
In the case of `COC(=O)c1nc(-c2ccc(C(F)(F)F)nc2F)c(F)c(N)c1Cl` [Compound 24], the pest or weed control at 140 g/ha is reported as 95 to 100%.

Same assay, conditions: Brassica napus, post-emergence, 336 h, BRSSS: oilseed rape, canola (Brassica napus), application rate 70 (kg ai/ha; footnote: g ai/ha), read-out: Visual Growth Reduction (%) 14 Days After Application BRSSS
Compound `COC(=O)c1nc(-c2ccc(C(F)(F)F)nc2F)c(F)c(N)c1Cl` [Compound 24] has a pest or weed control at 70 g/ha of 60 to 74%.

Same assay, conditions: Brassica napus, post-emergence, 336 h, BRSSS: oilseed rape, canola (Brassica napus), application rate 140 (kg ai/ha; footnote: g ai/ha), read-out: Visual Growth Reduction (%) 14 Days After Application BRSSS
Work on `COC(=O)c1nc(-c2ccc(C(F)(F)F)nc2F)c(F)c(N)c1Cl` [Compound 24] yielded a pest or weed control at 140 g/ha of 75 to 84%.

Same assay, conditions: Chenopodium album, post-emergence, 336 h, CHEAL: lambsquarters (Chenopodium album), application rate 70 (kg ai/ha; footnote: g ai/ha), read-out: Visual Growth Reduction (%) 14 Days After Application CHEAL
Work on `COC(=O)c1nc(-c2ccc(C(F)(F)F)nc2F)c(F)c(N)c1Cl` [Compound 24] yielded a pest or weed control at 70 g/ha of 95 to 100%.

Same assay, conditions: Chenopodium album, post-emergence, 336 h, CHEAL: lambsquarters (Chenopodium album), application rate 140 (kg ai/ha; footnote: g ai/ha), read-out: Visual Growth Reduction (%) 14 Days After Application CHEAL
In the case of `COC(=O)c1nc(-c2ccc(C(F)(F)F)nc2F)c(F)c(N)c1Cl` [Compound 24], the pest or weed control at 140 g/ha is reported as 95 to 100%.

Same assay, conditions: Euphorbia heterophylla, post-emergence, 336 h, EPHHL: wild poinsettia (Euphorbia heterophylla), application rate 70 (kg ai/ha; footnote: g ai/ha), read-out: Visual Growth Reduction (%) 14 Days After Application EPHHL
With `COC(=O)c1nc(-c2ccc(C(F)(F)F)nc2F)c(F)c(N)c1Cl` [Compound 24] the pest or weed control at 70 g/ha was 85 to 94%.

Same assay, conditions: Euphorbia heterophylla, post-emergence, 336 h, EPHHL: wild poinsettia (Euphorbia heterophylla), application rate 140 (kg ai/ha; footnote: g ai/ha), read-out: Visual Growth Reduction (%) 14 Days After Application EPHHL
Work on `COC(=O)c1nc(-c2ccc(C(F)(F)F)nc2F)c(F)c(N)c1Cl` [Compound 24] yielded a pest or weed control at 140 g/ha of 85 to 94%.

Same assay, conditions: Helianthus annuus, post-emergence, 336 h, HELAN: sunflower (Helianthus annuus), application rate 70 (kg ai/ha; footnote: g ai/ha), read-out: Visual Growth Reduction (%) 14 Days After Application HELAN
`COC(=O)c1nc(-c2ccc(C(F)(F)F)nc2F)c(F)c(N)c1Cl` [Compound 24] gave a pest or weed control at 70 g/ha of 95 to 100%.

Same assay, conditions: Helianthus annuus, post-emergence, 336 h, HELAN: sunflower (Helianthus annuus), application rate 140 (kg ai/ha; footnote: g ai/ha), read-out: Visual Growth Reduction (%) 14 Days After Application HELAN
For `COC(=O)c1nc(-c2ccc(C(F)(F)F)nc2F)c(F)c(N)c1Cl` [Compound 24], the pest or weed control at 140 g/ha was 95 to 100%.

Same assay, conditions: Viola tricolor, post-emergence, 336 h, VIOTR: wild pansy (Viola tricolor), application rate 70 (kg ai/ha; footnote: g ai/ha), read-out: Visual Growth Reduction (%) 14 Days After Application VIOTR
In the case of `COC(=O)c1nc(-c2ccc(C(F)(F)F)nc2F)c(F)c(N)c1Cl` [Compound 24], the pest or weed control at 70 g/ha is reported as 0 to 29%.

Same assay, conditions: Viola tricolor, post-emergence, 336 h, VIOTR: wild pansy (Viola tricolor), application rate 140 (kg ai/ha; footnote: g ai/ha), read-out: Visual Growth Reduction (%) 14 Days After Application VIOTR
With `COC(=O)c1nc(-c2ccc(C(F)(F)F)nc2F)c(F)c(N)c1Cl` [Compound 24] the pest or weed control at 140 g/ha was 0 to 29%.

Test system: Key Grass and Sedge Weeds as well as Grass Crops
Assay: Post-Emergent Test II (Table 6)
Assay type: in vivo
Details: post-emergence, 336 h, CYPSS, 70 g ai/ha, 14 days after application, read-out: Visual Growth Reduction (%) 14 Days After Application CYPSS
Summary of the method: as §1
For `COC(=O)c1nc(-c2ccc(C(F)(F)F)nc2F)c(F)c(N)c1Cl` [Compound 24], the pest or weed control at 70 g/ha was 45 to 59%.

Same assay, conditions: post-emergence, 336 h, CYPSS, 140 g ai/ha, 14 days after application, read-out: Visual Growth Reduction (%) 14 Days After Application CYPSS
`COC(=O)c1nc(-c2ccc(C(F)(F)F)nc2F)c(F)c(N)c1Cl` [Compound 24] showed a pest or weed control at 140 g/ha of 95 to 100%.

Same assay, conditions: post-emergence, 336 h, DIGSA: crabgrass (Digitaria sanguinalis), 70 g ai/ha, 14 days after application, read-out: Visual Growth Reduction (%) 14 Days After Application DIGSA
`COC(=O)c1nc(-c2ccc(C(F)(F)F)nc2F)c(F)c(N)c1Cl` [Compound 24] gave a pest or weed control at 70 g/ha of 0 to 29%.

Same assay, conditions: post-emergence, 336 h, DIGSA: crabgrass (Digitaria sanguinalis), 140 g ai/ha, 14 days after application, read-out: Visual Growth Reduction (%) 14 Days After Application DIGSA
In the case of `COC(=O)c1nc(-c2ccc(C(F)(F)F)nc2F)c(F)c(N)c1Cl` [Compound 24], the pest or weed control at 140 g/ha is reported as 75 to 84%.

Same assay, conditions: post-emergence, 336 h, ECHSS, 70 g ai/ha, 14 days after application, read-out: Visual Growth Reduction (%) 14 Days After Application ECHSS
`COC(=O)c1nc(-c2ccc(C(F)(F)F)nc2F)c(F)c(N)c1Cl` [Compound 24] gave a pest or weed control at 70 g/ha of 45 to 59%.

Same assay, conditions: post-emergence, 336 h, ECHSS, 140 g ai/ha, 14 days after application, read-out: Visual Growth Reduction (%) 14 Days After Application ECHSS
`COC(=O)c1nc(-c2ccc(C(F)(F)F)nc2F)c(F)c(N)c1Cl` [Compound 24] showed a pest or weed control at 140 g/ha of 60 to 74%.

Same assay, conditions: post-emergence, 336 h, ORYSS (crop), 70 g ai/ha, 14 days after application, read-out: Visual Growth Reduction (%) 14 Days After Application ORYSS
`COC(=O)c1nc(-c2ccc(C(F)(F)F)nc2F)c(F)c(N)c1Cl` [Compound 24] showed a pest or weed control at 70 g/ha of 0 to 29%.

Same assay, conditions: post-emergence, 336 h, ORYSS (crop), 140 g ai/ha, 14 days after application, read-out: Visual Growth Reduction (%) 14 Days After Application ORYSS
`COC(=O)c1nc(-c2ccc(C(F)(F)F)nc2F)c(F)c(N)c1Cl` [Compound 24] gave a pest or weed control at 140 g/ha of 0 to 29%.

Same assay, conditions: post-emergence, 336 h, SETFA: giant foxtail (Setaria faberi), 70 g ai/ha, 14 days after application, read-out: Visual Growth Reduction (%) 14 Days After Application SETFA
Work on `COC(=O)c1nc(-c2ccc(C(F)(F)F)nc2F)c(F)c(N)c1Cl` [Compound 24] yielded a pest or weed control at 70 g/ha of 75 to 84%.

Same assay, conditions: post-emergence, 336 h, SETFA: giant foxtail (Setaria faberi), 140 g ai/ha, 14 days after application, read-out: Visual Growth Reduction (%) 14 Days After Application SETFA
`COC(=O)c1nc(-c2ccc(C(F)(F)F)nc2F)c(F)c(N)c1Cl` [Compound 24] showed a pest or weed control at 140 g/ha of 75 to 84%.

Same assay, conditions: post-emergence, 336 h, SORVU: grain sorghum (Sorghum vulgare), 70 g ai/ha, 14 days after application, read-out: Visual Growth Reduction (%) 14 Days After Application SORVU
`COC(=O)c1nc(-c2ccc(C(F)(F)F)nc2F)c(F)c(N)c1Cl` [Compound 24] gave a pest or weed control at 70 g/ha of 30 to 44%.

Same assay, conditions: post-emergence, 336 h, SORVU: grain sorghum (Sorghum vulgare), 140 g ai/ha, 14 days after application, read-out: Visual Growth Reduction (%) 14 Days After Application SORVU
In the case of `COC(=O)c1nc(-c2ccc(C(F)(F)F)nc2F)c(F)c(N)c1Cl` [Compound 24], the pest or weed control at 140 g/ha is reported as 45 to 59%.

Same assay, conditions: post-emergence, 336 h, TRZSS (crop), 70 g ai/ha, 14 days after application, read-out: Visual Growth Reduction (%) 14 Days After Application TRZSS
`COC(=O)c1nc(-c2ccc(C(F)(F)F)nc2F)c(F)c(N)c1Cl` [Compound 24] showed a pest or weed control at 70 g/ha of 0 to 29%.

Same assay, conditions: post-emergence, 336 h, TRZSS (crop), 140 g ai/ha, 14 days after application, read-out: Visual Growth Reduction (%) 14 Days After Application TRZSS
`COC(=O)c1nc(-c2ccc(C(F)(F)F)nc2F)c(F)c(N)c1Cl` [Compound 24] gave a pest or weed control at 140 g/ha of 0 to 29%.

Same assay, conditions: post-emergence, 336 h, ZEAMX: maize, corn (Zea mays), 70 g ai/ha, 14 days after application, read-out: Visual Growth Reduction (%) 14 Days After Application ZEAMX
In the case of `COC(=O)c1nc(-c2ccc(C(F)(F)F)nc2F)c(F)c(N)c1Cl` [Compound 24], the pest or weed control at 70 g/ha is reported as 0 to 29%.

Same assay, conditions: post-emergence, 336 h, ZEAMX: maize, corn (Zea mays), 140 g ai/ha, 14 days after application, read-out: Visual Growth Reduction (%) 14 Days After Application ZEAMX
For `COC(=O)c1nc(-c2ccc(C(F)(F)F)nc2F)c(F)c(N)c1Cl` [Compound 24], the pest or weed control at 140 g/ha was 95 to 100%.

Test system: not given
Assay: not given
Details: not given
For `COC(=O)c1nc(-c2ccc(C(F)(F)F)nc2F)c(F)c(N)c1Cl` [Compound 24], the melting point was 128 °C.
